The values below are quoted from earlier work in paper PMC9138102, “The Role of ZIP9 and Androgen Receptor in the Establishment of Tight Junctions between Adult Rat Sertoli Cells” (Biology, 2022).

The conditions of the data set: exogenous testosterone; cited from earlier work.

As to `C[C@]12CC[C@H]3[C@@H](CCC4=CC(=O)CC[C@@]43C)[C@@H]1CC[C@@H]2O` [testosterone], the “Effect on hypothalamic–pituitary–gonadal axis hormones” value was “prevents GnRH release from the hypothalamus and FSH and LH from the pituitary, leading to the impairment of testosterone production in Leydig cells”; the “Effect on male fertility” value was “unfavorably affects male fertility”; the Germ cell production entry was “germ cell production under these conditions is halted”; the Severe side effects result was “polycythemia, cardiac hypertrophy, and myocardial infarction”.
